HELM strings list units from the 5' end as sugar, base in round brackets, then linkage (d deoxyribose, r ribose, m 2'-O-methyl, p phosphodiester). Strings are as the collection lists them, not checked against the first reports. ss, as = sense and antisense strand; [fl2r] = 2'-fluoro
Conditions: siRNA
Further: test system not given here.

Substance	target mRNA knockdown [%]
RNA1{r(G)p.r(A)p.r(A)p.r(C)p.r(U)p.r(C)p.r(U)p.r(U)p.r(A)p.r(G)p.r(C)p.r(G)p.r(U)p.r(A)p.r(U)p.r(G)p.r(C)p.r(A)p.r(A)p.d(T)p.d(T)}|RNA2{r(U)p.r(U)p.r(G)p.r(C)p.r(A)p.r(U)p.r(A)p.r(C)p.r(G)p.r(C)p.r(U)p.r(A)p.r(A)p.r(G)p.r(A)p.r(G)p.r(U)p.r(U)p.r(C)p.d(T)p.d(T)}$$$RNA1{StrandType:ss}|RNA2{StrandType:as}$	56
RNA1{r(G)p.r(A)p.r(A)p.r(G)p.r(A)p.[fl2r](U)p.r(A)p.r(G)p.r(G)p.r(A)p.r(A)p.r(G)p.r(G)p.r(G)p.r(G)p.[fl2r](C)p.[fl2r](U)p.[fl2r](U)p.[fl2r](C)p.r(T)p.r(T)}|RNA2{r(G)p.r(A)p.r(A)p.r(G)p.r(C)p.r(C)p.r(C)p.r(C)p.r(U)p.r(U)p.r(C)p.r(C)p.r(U)p.r(A)p.r(U)p.r(C)p.r(U)p.r(U)p.r(C)p.r(T)p.r(T)}$$$RNA1{StrandType:ss}|RNA2{StrandType:as}$	45
RNA1{r(G)p.r(A)p.r(A)p.r(G)p.r(A)p.[fl2r](U)p.r(A)p.r(G)p.r(G)p.r(A)p.r(A)p.r(G)p.r(G)p.r(G)p.r(G)p.r(C)p.r(U)p.r(U)p.r(C)p.r(T)p.r(T)}|RNA2{r(G)p.r(A)p.r(A)p.r(G)p.r(C)p.r(C)p.r(C)p.r(C)p.r(U)p.r(U)p.r(C)p.r(C)p.[fl2r](U)p.r(A)p.r(U)p.r(C)p.r(U)p.r(U)p.r(C)p.r(T)p.r(T)}$$$RNA1{StrandType:ss}|RNA2{StrandType:as}$	56
RNA1{r(G)p.r(A)p.r(A)p.r(G)p.r(A)p.r(G)p.r(C)p.r(C)p.m(U)p.m(A)p.m(C)p.r(A)p.m(C)p.r(A)p.r(A)p.r(C)p.r(C)p.r(C)p.r(U)p.r(T)p.r(T)}|RNA2{r(A)p.r(G)p.r(G)p.r(G)p.r(U)p.m(U)p.r(G)p.m(U)p.r(G)p.m(U)p.r(A)p.r(G)p.r(G)p.r(C)p.r(U)p.r(C)p.r(U)p.r(U)p.r(C)p.r(T)p.r(T)}$$$RNA1{StrandType:ss}|RNA2{StrandType:as}$	74
RNA1{r(G)p.r(A)p.r(A)p.r(G)p.r(A)p.r(G)p.r(C)p.r(C)p.m(U)p.r(A)p.m(C)p.r(A)p.m(C)p.r(A)p.r(A)p.r(C)p.r(C)p.r(C)p.r(U)p.r(T)p.r(T)}|RNA2{r(A)p.r(G)p.r(G)p.r(G)p.r(U)p.m(U)p.r(G)p.m(U)p.r(G)p.m(U)p.r(A)p.r(G)p.r(G)p.r(C)p.r(U)p.r(C)p.r(U)p.r(U)p.r(C)p.r(T)p.r(T)}$$$RNA1{StrandType:ss}|RNA2{StrandType:as}$	75
RNA1{r(G)p.r(A)p.r(A)p.r(G)p.r(A)p.r(G)p.r(C)p.r(C)p.m(U)p.r(A)p.m(C)p.r(A)p.r(C)p.r(A)p.r(A)p.r(C)p.r(C)p.r(C)p.r(U)p.r(T)p.r(T)}|RNA2{r(A)p.r(G)p.r(G)p.r(G)p.r(U)p.r(U)p.r(G)p.m(U)p.r(G)p.m(U)p.r(A)p.r(G)p.r(G)p.r(C)p.r(U)p.r(C)p.r(U)p.r(U)p.r(C)p.r(T)p.r(T)}$$$RNA1{StrandType:ss}|RNA2{StrandType:as}$	76
RNA1{r(G)p.r(A)p.r(A)p.r(G)p.r(A)p.r(G)p.r(C)p.r(C)p.r(U)p.r(A)p.m(C)p.r(A)p.m(C)p.r(A)p.r(A)p.r(C)p.r(C)p.r(C)p.r(U)p.r(T)p.r(T)}|RNA2{r(A)p.r(G)p.r(G)p.r(G)p.r(U)p.m(U)p.r(G)p.r(U)p.r(G)p.m(U)p.r(A)p.r(G)p.r(G)p.r(C)p.r(U)p.r(C)p.r(U)p.r(U)p.r(C)p.r(T)p.r(T)}$$$RNA1{StrandType:ss}|RNA2{StrandType:as}$	74
RNA1{r(G)p.r(A)p.r(A)p.r(G)p.r(A)p.r(G)p.r(U)p.m(U)p.r(A)p.r(A)p.r(C)p.r(C)p.r(C)p.m(G)p.r(G)p.r(G)p.m(A)p.r(C)p.r(U)p.r(T)p.r(T)}|RNA2{r(A)p.r(G)p.r(U)p.r(C)p.r(C)p.r(C)p.r(G)p.r(G)p.r(G)p.r(U)p.m(U)p.r(A)p.r(A)p.r(C)p.r(U)p.r(C)p.r(U)p.r(U)p.r(C)p.r(T)p.r(T)}$$$RNA1{StrandType:ss}|RNA2{StrandType:as}$	47

Reference: the OligoGym collection
